The values below come from patent US8927533B2, “Thio derivatives bearing lactams as potent HDAC inhibitors and their uses as medicaments” (SIGMA-TAU Industrie Farmaceutiche Riunite S.p.A., priority 2011, dated 2015).

Common to all, as to type: biochemical
The target of one test is HDAC2 (Homo sapiens, UniProt Q92769). Put plainly: HDAC enzymatic assay, HDAC2. Conditions: fluorogenic tetrapeptide RHKKAc substrate 10 μM; read-out: HDAC isoforms IC50 (nM), 2. The method, then:
(§1) Each compound was dissolved in DMSO, and progressively diluted solutions were used for testing. […] Upon its deacetylation, the fluorophore was released given rise to fluorescence emission which was detected by a fluorimeter, and the IC50 values of the compounds were determined by analyzing dose-response inhibition curves.

The target in a further test is HDAC4 (Homo sapiens, UniProt P56524). Kind of test: HDAC enzymatic assay, HDAC4. Conditions: fluorogenic tetrapeptide RHKKAc substrate 10 μM; read-out: HDAC isoforms IC50 (nM), 4. The method, then: as §1
HDAC4, sequence (P56524 whole entry, the tested form may be a part, canonical isoform): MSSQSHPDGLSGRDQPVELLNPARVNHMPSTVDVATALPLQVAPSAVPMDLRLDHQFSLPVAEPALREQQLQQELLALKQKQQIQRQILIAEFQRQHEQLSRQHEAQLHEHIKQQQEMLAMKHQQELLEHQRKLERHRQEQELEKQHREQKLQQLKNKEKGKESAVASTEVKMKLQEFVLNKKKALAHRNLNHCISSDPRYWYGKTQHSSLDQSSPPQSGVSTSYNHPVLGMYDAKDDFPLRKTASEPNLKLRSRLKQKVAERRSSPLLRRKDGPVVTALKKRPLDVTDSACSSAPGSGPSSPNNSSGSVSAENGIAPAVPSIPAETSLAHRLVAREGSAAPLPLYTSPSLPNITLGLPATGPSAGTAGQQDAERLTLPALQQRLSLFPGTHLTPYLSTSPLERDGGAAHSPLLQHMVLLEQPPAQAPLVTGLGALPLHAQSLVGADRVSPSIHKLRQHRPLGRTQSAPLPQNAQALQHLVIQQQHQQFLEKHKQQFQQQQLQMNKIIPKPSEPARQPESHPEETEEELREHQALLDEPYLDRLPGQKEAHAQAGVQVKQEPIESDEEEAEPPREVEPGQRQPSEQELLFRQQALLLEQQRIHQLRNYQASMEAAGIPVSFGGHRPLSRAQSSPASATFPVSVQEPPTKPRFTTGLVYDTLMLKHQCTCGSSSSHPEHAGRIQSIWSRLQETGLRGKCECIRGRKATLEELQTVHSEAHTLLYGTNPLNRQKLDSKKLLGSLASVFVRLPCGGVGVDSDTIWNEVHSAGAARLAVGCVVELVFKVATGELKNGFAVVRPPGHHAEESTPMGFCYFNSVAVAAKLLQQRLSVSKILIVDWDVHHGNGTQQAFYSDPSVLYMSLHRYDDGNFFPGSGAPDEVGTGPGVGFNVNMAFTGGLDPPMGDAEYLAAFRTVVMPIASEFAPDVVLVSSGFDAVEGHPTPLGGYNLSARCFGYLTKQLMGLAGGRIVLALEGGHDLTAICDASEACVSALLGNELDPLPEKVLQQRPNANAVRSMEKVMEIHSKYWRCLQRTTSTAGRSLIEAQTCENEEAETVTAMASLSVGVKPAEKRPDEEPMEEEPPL
The target of test [1] is T1, HDAC3 (complex of full length human HDAC3 with human NCOR2 amino acids 395-489) (Homo sapiens, UniProt O15379).
T1 construct: complex of full length human HDAC3 with a C-terminal His-tag; His-tag (C); host or cells: baculovirus expression system
T1 sequence (O15379 whole entry, the tested form may be a part): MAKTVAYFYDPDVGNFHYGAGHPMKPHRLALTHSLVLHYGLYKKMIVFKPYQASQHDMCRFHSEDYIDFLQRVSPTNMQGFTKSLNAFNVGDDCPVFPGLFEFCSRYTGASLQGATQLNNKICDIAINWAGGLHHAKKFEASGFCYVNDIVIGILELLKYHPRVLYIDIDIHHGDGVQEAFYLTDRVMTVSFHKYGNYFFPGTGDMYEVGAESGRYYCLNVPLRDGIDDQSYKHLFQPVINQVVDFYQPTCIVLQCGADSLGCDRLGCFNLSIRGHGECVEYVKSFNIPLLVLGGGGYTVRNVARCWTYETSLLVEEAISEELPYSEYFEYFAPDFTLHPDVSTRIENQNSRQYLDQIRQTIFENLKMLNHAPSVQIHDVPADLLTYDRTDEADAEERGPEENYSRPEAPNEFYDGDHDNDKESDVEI
T1 sequence (Q9Y618 395-489 partner limits assumed): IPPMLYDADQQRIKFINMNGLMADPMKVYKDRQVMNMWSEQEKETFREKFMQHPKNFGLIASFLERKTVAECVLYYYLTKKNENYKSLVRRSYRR
Put plainly: HDAC enzymatic assay, HDAC3. Conditions: fluorogenic tetrapeptide RHKKAc substrate 10 μM; read-out: HDAC isoforms IC50 (nM), 3. The method, then: as §1

Another test addresses T2, HDAC11 (Homo sapiens, UniProt Q96DB2).
T2 sequence (Q96DB2 1-347): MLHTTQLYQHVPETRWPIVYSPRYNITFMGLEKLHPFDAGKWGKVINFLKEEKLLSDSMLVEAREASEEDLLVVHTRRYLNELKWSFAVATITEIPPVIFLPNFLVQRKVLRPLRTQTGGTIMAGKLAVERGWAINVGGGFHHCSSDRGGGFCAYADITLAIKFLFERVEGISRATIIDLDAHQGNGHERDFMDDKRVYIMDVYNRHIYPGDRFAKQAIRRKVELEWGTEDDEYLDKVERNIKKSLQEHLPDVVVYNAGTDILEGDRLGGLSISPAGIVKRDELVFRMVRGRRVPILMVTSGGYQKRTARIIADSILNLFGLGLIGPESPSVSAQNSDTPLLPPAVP
Put plainly: HDAC enzymatic assay, HDAC11. Conditions: fluorogenic tetrapeptide RHKKAc substrate 10 μM; read-out: HDAC isoforms IC50 (nM), 11. The method, then:
as §1

The target in the next test is T3, HDAC6 (Homo sapiens, UniProt Q9UBN7).
T3 sequence (Q9UBN7 1-1215): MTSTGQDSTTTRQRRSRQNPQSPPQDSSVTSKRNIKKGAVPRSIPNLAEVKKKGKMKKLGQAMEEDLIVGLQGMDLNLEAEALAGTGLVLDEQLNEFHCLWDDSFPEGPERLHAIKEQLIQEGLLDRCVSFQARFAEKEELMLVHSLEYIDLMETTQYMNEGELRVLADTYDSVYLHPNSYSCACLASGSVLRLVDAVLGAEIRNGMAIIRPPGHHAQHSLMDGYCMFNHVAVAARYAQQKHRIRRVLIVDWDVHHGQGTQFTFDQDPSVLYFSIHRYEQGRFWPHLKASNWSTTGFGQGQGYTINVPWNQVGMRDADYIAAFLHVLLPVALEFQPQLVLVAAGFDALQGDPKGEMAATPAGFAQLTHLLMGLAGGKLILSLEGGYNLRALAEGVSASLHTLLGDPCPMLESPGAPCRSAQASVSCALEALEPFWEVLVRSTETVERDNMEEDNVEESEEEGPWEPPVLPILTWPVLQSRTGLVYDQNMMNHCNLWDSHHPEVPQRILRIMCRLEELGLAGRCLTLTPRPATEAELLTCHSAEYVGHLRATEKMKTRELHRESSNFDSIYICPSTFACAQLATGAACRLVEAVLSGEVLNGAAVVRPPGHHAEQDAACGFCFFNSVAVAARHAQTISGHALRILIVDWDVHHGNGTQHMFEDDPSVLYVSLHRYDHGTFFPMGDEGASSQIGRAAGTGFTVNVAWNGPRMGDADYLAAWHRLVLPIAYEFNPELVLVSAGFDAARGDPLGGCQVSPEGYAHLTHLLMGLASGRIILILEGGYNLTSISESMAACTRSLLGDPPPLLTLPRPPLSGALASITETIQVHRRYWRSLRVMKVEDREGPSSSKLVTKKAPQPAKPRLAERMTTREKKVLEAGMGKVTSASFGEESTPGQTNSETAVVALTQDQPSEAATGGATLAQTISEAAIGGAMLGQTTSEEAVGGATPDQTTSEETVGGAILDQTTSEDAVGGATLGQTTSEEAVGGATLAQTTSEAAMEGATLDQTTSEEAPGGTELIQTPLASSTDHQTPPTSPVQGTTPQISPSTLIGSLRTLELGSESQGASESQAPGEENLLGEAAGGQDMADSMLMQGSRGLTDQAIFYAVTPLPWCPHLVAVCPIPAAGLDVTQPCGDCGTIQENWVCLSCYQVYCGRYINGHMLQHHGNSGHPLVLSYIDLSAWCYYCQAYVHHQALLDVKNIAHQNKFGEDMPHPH
Put plainly: HDAC enzymatic assay, HDAC6. Conditions: fluorogenic tetrapeptide RHKKAc substrate 10 μM; read-out: HDAC isoforms IC50 (nM), 6. The method, then: as §1

HDAC2, sequence (Q92769 whole entry, canonical isoform): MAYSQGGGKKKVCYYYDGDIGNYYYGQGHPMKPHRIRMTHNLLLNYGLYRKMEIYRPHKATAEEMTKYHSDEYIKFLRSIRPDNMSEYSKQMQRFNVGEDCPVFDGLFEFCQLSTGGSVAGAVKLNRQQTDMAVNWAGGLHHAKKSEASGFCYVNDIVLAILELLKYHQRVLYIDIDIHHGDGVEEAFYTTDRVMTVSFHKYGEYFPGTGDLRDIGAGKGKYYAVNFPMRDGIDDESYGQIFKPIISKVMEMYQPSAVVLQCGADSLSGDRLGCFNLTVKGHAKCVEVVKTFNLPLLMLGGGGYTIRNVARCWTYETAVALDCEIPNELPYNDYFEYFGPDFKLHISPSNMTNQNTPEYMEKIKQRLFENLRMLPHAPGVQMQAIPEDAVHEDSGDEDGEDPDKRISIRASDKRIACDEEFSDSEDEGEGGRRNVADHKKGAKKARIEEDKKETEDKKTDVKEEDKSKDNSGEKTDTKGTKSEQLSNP

For `O=C1NCCC[C@@H]1C(=O)N[C@@H](CCCCCS)C(=O)Nc1ccccc1` [Example 36, (S)-2-Oxo-piperidine-3-carboxylic acid ((S)-6-mercapto-1-phenylcarbamoyl-hexyl)amide], the IC50 (at HDAC2; at HDAC4; in test [1]; on HDAC11; at HDAC6) was under 50 nM throughout.

With `O=C1CCC[C@H](C(=O)N[C@@H](CCCCCS)C(=O)Nc2ccccc2)N1` [Example 37, (R)-6-Oxo-piperidine-2-carboxylic acid ((S)-6-mercapto-1-phenylcarbamoyl-hexyl)amide], the IC50 (on HDAC2; on HDAC4; in test [1]; at HDAC11; at HDAC6) was under 50 nM in each case.

In the case of `Cc1cccc(NC(=O)[C@H](CCCCCS)NC(=O)[C@@H]2CCCC(=O)N2)c1` [Example 38, (S)-6-Oxo-piperidine-2-carboxylic acid ((S)-6-mercapto-1-m-tolylcarbamoyl-hexyl)amide], the 50% inhibitory concentration (IC50) – broadly, the concentration that inhibits the measured activity by half – on HDAC2 is under 50 nM; at HDAC4, 100 to 500 nM; in test [1] it was under 50 nM; on HDAC11 it was under 50 nM; at HDAC6, under 50 nM.

For `Cc1ccc(NC(=O)[C@H](CCCCCS)NC(=O)[C@@H]2CCCC(=O)N2)cc1` [Example 39, (S)-6-Oxo-piperidine-2-carboxylic acid ((S)-6-mercapto-1-p-tolylcarbamoyl-hexyl)amide], the 50% inhibitory concentration (IC50) on HDAC2 is 50 to 100 nM; at HDAC4, 100 to 500 nM; in test [1], under 50 nM; on HDAC11, under 50 nM; at HDAC6, under 50 nM.

As for `CN1C(=O)CCC[C@H]1C(=O)N[C@@H](CCCCCS)C(=O)Nc1ccccc1` [Example 40, (S)-1-Methyl-6-oxo-piperidine-2-carboxylic acid ((S)-6-mercapto-1-phenylcarbamoyl-hexyl)-amide], the IC50 at HDAC2 is 50 to 100 nM; at HDAC4, 100 to 500 nM; in test [1], under 50 nM; on HDAC11, under 50 nM; at HDAC6, under 50 nM.
